Laboratory results reported in the CheMixHub viscosity set.
Where “and” joins values, the source holds several entries; their conditions need not be identical. Identical values can stand only once.

Key:
[1] = xn = mol fraction of the nth substance listed

CCCCOC(C)=O
viscosity
Settings | 293.15 K | 298.15 K | 308.15 K | 313.15 K | 318.15 K | 323.15 K
100 kPa | 0.73 mPa·s | 0.683 mPa·s | – | 0.55 mPa·s | 0.51 mPa·s | 0.465 mPa·s
101 kPa | 0.724 mPa·s and 0.724 mPa·s | – | – | – | 0.524 mPa·s and 0.5262 mPa·s | 0.507 mPa·s
101.33 kPa | 0.735 mPa·s | – | 0.592 mPa·s and 0.593 mPa·s and 0.584 mPa·s | 0.557 mPa·s and 0.565 mPa·s | 0.524 mPa·s | –

CN1CCCN(C)C1=O
viscosity [mPa·s]
Settings | 293.15 K | 298.15 K | 303.15 K | 308.15 K | 313.15 K | 318.15 K | 323.15 K
100 kPa | 3.514 | 3.11 | 2.779 | 2.501 | 2.266 | 2.064 | 1.891
101 kPa | – | 2.95 | – | – | – | – | –

Cn1c(=O)c2c(ncn2C)n(C)c1=O + OCCO
viscosity [mPa·s], [1], 100 kPa
Settings | 293.15 K | 298.15 K | 303.15 K | 308.15 K | 313.15 K | 318.15 K | 323.15 K
x1 = 0.00056 | 20.79 | 16.86 | 13.79 | 11.41 | 9.55 | 8.092 | 6.902
x1 = 0.00112 | 20.75 | 16.8 | 13.77 | 11.36 | 9.528 | 8.07 | 6.89
x1 = 0.00166 | 20.69 | 16.76 | 13.72 | 11.34 | 9.492 | 8.048 | 6.866
x1 = 0.00222 | 20.64 | 16.71 | 13.67 | 11.3 | 9.464 | 8.019 | 6.833
x1 = 0.00285 | 20.57 | 16.66 | 13.63 | 11.27 | 9.426 | 7.982 | 6.805
x1 = 0.00335 | 20.53 | 16.63 | 13.59 | 11.23 | 9.403 | 7.965 | 6.785

CC(C)c1ccccc1 + c1ccccc1
[1]
Settings | viscosity [mPa·s]
293.15 K, 101.33 kPa, x2 = 0.3728 | 0.721
293.15 K, 101.33 kPa, x2 = 0.5889 | 0.693
293.15 K, 101.33 kPa, x2 = 0.8176 | 0.66
293.15 K, 101.33 kPa, x2 = 0.9057 | 0.653
303.15 K, 101.3 kPa, x2 = 0.1245 | 0.6683
303.15 K, 101.3 kPa, x2 = 0.2644 | 0.6483
303.15 K, 101.3 kPa, x2 = 0.4246 | 0.6265
303.15 K, 101.3 kPa, x2 = 0.5391 | 0.6111
303.15 K, 101.3 kPa, x2 = 0.5606 | 0.6069
303.15 K, 101.3 kPa, x2 = 0.6382 | 0.5972
303.15 K, 101.3 kPa, x2 = 0.6478 | 0.5958
303.15 K, 101.3 kPa, x2 = 0.7409 | 0.5819
303.15 K, 101.3 kPa, x2 = 0.831 | 0.5721
303.15 K, 101.3 kPa, x2 = 0.919 | 0.5634
303.15 K, 101.33 kPa, x2 = 0.3728 | 0.63
303.15 K, 101.33 kPa, x2 = 0.5889 | 0.607
303.15 K, 101.33 kPa, x2 = 0.8176 | 0.575
303.15 K, 101.33 kPa, x2 = 0.9057 | 0.563
313.15 K, 101.33 kPa, x2 = 0.3728 | 0.56
313.15 K, 101.33 kPa, x2 = 0.5889 | 0.537
313.15 K, 101.33 kPa, x2 = 0.8176 | 0.512
313.15 K, 101.33 kPa, x2 = 0.9057 | 0.496
323.15 K, 101.33 kPa, x2 = 0.3728 | 0.499
323.15 K, 101.33 kPa, x2 = 0.5889 | 0.479
323.15 K, 101.33 kPa, x2 = 0.8176 | 0.454
323.15 K, 101.33 kPa, x2 = 0.9057 | 0.441

CCCCCCCC(=O)O + c1ccccc1
[1], 298.15 K, 101 kPa
Settings | viscosity [mPa·s]
x1 = 0.03 | 0.638
x1 = 0.057 | 0.68
x1 = 0.087 | 0.727
x1 = 0.12 | 0.781
x1 = 0.27 | 1.072
x1 = 0.35 | 1.295
x1 = 0.45 | 1.591
x1 = 0.68 | 2.505

CCCCOC(C)=O + c1ccccc1
viscosity [mPa·s], [1], 101 kPa
Settings | 298.15 K | 308.15 K
x1 = 0.0487 | 0.601 | 0.527
x1 = 0.1494 | 0.598 | 0.528
x1 = 0.2494 | 0.598 | 0.532
x1 = 0.3494 | 0.6 | 0.536
x1 = 0.4454 | 0.604 | 0.541
x1 = 0.4954 | 0.607 | 0.544
x1 = 0.5489 | 0.611 | 0.548
x1 = 0.6497 | 0.62 | 0.556
x1 = 0.7503 | 0.632 | 0.565
x1 = 0.8496 | 0.647 | 0.575
x1 = 0.9424 | 0.663 | 0.586

CCCN + c1ccccc1
viscosity [mPa·s], [1], 101 kPa
Settings | x1 = 0.007866 | x1 = 0.01864 | x1 = 0.02795 | x1 = 0.03664 | x1 = 0.04697 | x1 = 0.0579 | x1 = 0.06586 | x1 = 0.07593 | x1 = 0.08436
303.15 K | 0.5618 | 0.5605 | 0.5588 | 0.5574 | 0.5554 | 0.5534 | 0.552 | 0.5501 | 0.548
313.15 K | 0.4898 | 0.4864 | 0.4837 | 0.4817 | 0.4766 | 0.4725 | 0.4704 | 0.467 | 0.4636

OCCc1ccccc1 + c1ccccc1
[1], 293.15 K, 101.32 kPa
Settings | viscosity [mPa·s]
x1 = 0.01771 | 0.6624
x1 = 0.04031 | 0.6965
x1 = 0.0739 | 0.7584
x1 = 0.1095 | 0.8402
x1 = 0.1585 | 0.985

Oc1ccccc1Cl + c1ccncc1
viscosity [mPa·s], [1], 101 kPa
Settings | 293.15 K | 303.15 K | 313.15 K
x1 = 0.07182 | 1.158 | 0.994 | 0.863
x1 = 0.1451 | 1.459 | 1.249 | 1.073
x1 = 0.2211 | 1.903 | 1.588 | 1.351
x1 = 0.311 | 2.62 | 2.152 | 1.773
x1 = 0.395 | 3.69 | 2.96 | 2.31
x1 = 0.4815 | 5.28 | 3.92 | 2.98
x1 = 0.5607 | 6.82 | 4.72 | 3.53
x1 = 0.6186 | 7.8 | 5.22 | 3.78
x1 = 0.6723 | 8.23 | 5.4 | 3.84
x1 = 0.7248 | 8.16 | 5.36 | 3.78
x1 = 0.7794 | 7.58 | 5.04 | 3.55
x1 = 0.8837 | 5.97 | 4.11 | 2.94
